Laboratory results as given in patent US8044200B2, “Synthesis and purification of pteroic acid and conjugates thereof” (Endocyte, Inc., priority 2005, dated 2011).

System: M109 cells
Assay: Effect of isolated folate-fluorescein conjugates on growth of solid tumors (subcutaneous M109 tumors in fluorescein-immunized mice)
Format: in vivo
Conditions: female Balb/c mice preimmunized with KLH-fluorescein; s.c. M109 tumor; 500, 2000 or 5000 nmol/kg i.p., days 1-19; in combination with IL-2 and IFN-α; versus PBS control; FIG. 2
Procedure: Six to eight-week old (˜20-22 grams) female Balb/c mice (8 mice/group) were immunized subcutaneously at multiple sites with fluorescein-labeled keyhole limpet hemocyanin (KLH) using a commercial saponin adjuvant (GPI-0100; Galenica). After assuring that anti-fluorescein antibody titers were high in all mice (as evidenced by the results of ELISA assays of serum samples of the mice), each animal was injected subcutaneously in the shoulder with 1×10^6 M109 cells (a syngeneic lung cancer cell line that expresses high levels of the folate receptor; day 0) following prior immunization with KLH-fluorescein. The immunizations with folate-fluorescein after tumor cell implantation consisted of 500, 2000, or 5000 nmol/kg of folate-fluorescein, conjugated via a gamma carboxyl-linked ethylene diamine bridge, given in 19 intraperitoneal doses at 24 hour intervals (days 1-19). Control animals were injected with phosphate buffered saline (PBS). A series of 5 daily injections (five times a week) for three weeks of 20,000 IU/day of recombinant human IL-2 were administered to all mice in order to stimulate the immune system. A series of 3 injections for three weeks of 25,000 U/day of recombinant human IFN-α were also administered to all mice. The efficacy of this immunotherapy was then evaluated by monitoring tumor volume (mm^3) using a caliper.

Nc1nc2ncc(CNc3ccc(C(=O)NC(CCC(=O)NCCNC(=S)Nc4ccc5c(c4)C(=O)OC54c5ccc(O)cc5Oc5cc(O)ccc54)C(=O)O)cc3)nc2c(=O)[nH]1 (stereo not shown) [folate-fluorescein]
growth of solid tumors (tumor volume): significantly inhibited
